How the values were obtained:
[1] = system: MOLM-13 cells (human acute myeloid leukemia cells); assay: MOLM-13 Cellular Assay; type: cell-based; conditions: 72 hours exposure, cell viability by CellTiter-Glo
In short: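 MOLM-13 AML cells, seeded at 5,000/well in RPMI 1640 with 10% FBS, were treated with compounds right after seeding for 72 h at 37 °C, 5% CO2. Viability read by CellTiter-Glo luminescence.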

human DHODH = human DHODH (Homo sapiens (Human), UniProt Q02127); assay: DHODH Enzymatic Assay; type: biochemical; conditions: purified human DHODH, DCIP absorbance, end-point mode; read-out: hDHODH IC50
Chain of human DHODH (Q02127 whole entry): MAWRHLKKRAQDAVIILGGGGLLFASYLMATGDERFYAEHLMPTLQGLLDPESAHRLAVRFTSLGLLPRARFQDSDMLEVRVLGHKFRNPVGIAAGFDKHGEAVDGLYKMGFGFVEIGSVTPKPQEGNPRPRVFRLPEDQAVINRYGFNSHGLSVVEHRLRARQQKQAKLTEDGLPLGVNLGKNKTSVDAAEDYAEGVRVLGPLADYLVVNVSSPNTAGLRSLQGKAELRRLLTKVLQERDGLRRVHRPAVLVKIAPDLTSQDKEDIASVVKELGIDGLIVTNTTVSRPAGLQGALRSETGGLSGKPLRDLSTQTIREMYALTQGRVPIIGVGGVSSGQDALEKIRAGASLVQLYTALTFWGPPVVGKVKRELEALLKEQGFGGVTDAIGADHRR
In short: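 Purified human DHODH in […] HEPES pH 7.5, 150 mM NaCl, 0.5 mM EDTA, 0.1% Triton X-100; reaction started with substrate mix of 20 mM DHO, 5 mM CoQ6, 1 mM DCIP. End-point read as DCIP reduction (absorbance ~600 nm) after brequinar quench.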

| Compound | IC50 ([1]; Homo sapiens, MOLM-13, 72 h) [nM] | IC50 (human DHODH) [nM] | IC50 [1] [nM] |
| --- | --- | --- | --- |
| C=C(C)c1cn(-c2c(C)cnc(OC)c2Cl)c(=O)c2cc(F)c(-n3nc(CO)n(CC)c3=O)cc12 [Example 62, 2-(3-Chloro-2-methoxy-5-methylpyridin-4-yl)-6-(4-ethyl-3-(hydroxymethyl)-5-oxo-4,5-dihydro-1H-1,2,4-triazol-1-yl)-7-fluoro-4-(prop-1-en-2-yl)isoquinolin-1(2H)-one] | 2 | 0.836 | – |
| CCn1c(CO)nn(-c2cc3c(C(C)C)cn(-c4cc(OC)ccc4F)c(=O)c3cc2F)c1=O [Example 63, 6-(4-Ethyl-3-(hydroxymethyl)-5-oxo-4,5-dihydro-1H-1,2,4-triazol-1-yl)-7-fluoro-2-(2-fluoro-5-methoxyphenyl)-4-isopropylisoquinolin-1(2H)-one] | 2 | 2.76 | – |
| CCn1c(CO)nn(-c2cc3c(C(C)C)cn(-c4ccc(F)cc4C)c(=O)c3cc2F)c1=O [Example 64, 6-(4-Ethyl-3-(hydroxymethyl)-5-oxo-4,5-dihydro-1H-1,2,4-triazol-1-yl)-7-fluoro-2-(4-fluoro-2-methylphenyl)-4-isopropylisoquinolin-1(2H)-one] | 0.5 | 0.459 | – |
| C=C(C)c1cn(-c2cccc(OCCO)c2Cl)c(=O)c2cc(F)c(-n3nc(CO)n(CC)c3=O)cc12 [Example 65, 2-(2-Chloro-3-(2-hydroxyethoxy)phenyl)-6-(4-ethyl-3-(hydroxymethyl)-5-oxo-4,5-dihydro-1H-1,2,4-triazol-1-yl)-7-fluoro-4-(prop-1-en-2-yl)isoquinolin-1(2H)-one] | 20 | 1.65 | – |
| C=C(C)c1cn(-c2ccccc2F)c(=O)c2cc(F)c(-n3nc(CO)n(CC)c3=O)cc12 [Example 66, 6-(4-Ethyl-3-(hydroxymethyl)-5-oxo-4,5-dihydro-1H-1,2,4-triazol-1-yl)-7-fluoro-2-(2-fluorophenyl)-4-(prop-1-en-2-yl)isoquinolin-1(2H)-one] | 0.3 | < 0.169 | – |
| CCn1c(CO)nn(-c2cc3c(C(C)C)cn(-c4cc(F)ccc4C)c(=O)c3cc2F)c1=O [Example 67, 6-(4-Ethyl-3-(hydroxymethyl)-5-oxo-4,5-dihydro-1H-1,2,4-triazol-1-yl)-7-fluoro-2-(5-fluoro-2-methylphenyl)-4-isopropylisoquinolin-1(2H)-one] | 0.9 | 0.605 | – |
| CCn1c(CO)nn(-c2cc3c(C(C)C)cn(-c4cc(F)ccc4F)c(=O)c3cc2F)c1=O [Example 68, 2-(2,5-Difluorophenyl)-6-(4-ethyl-3-(hydroxymethyl)-5-oxo-4,5-dihydro-1H-1,2,4-triazol-1-yl)-7-fluoro-4-isopropylisoquinolin-1(2H)-one] | 3 | 2.2 | – |
| CCn1c(CO)nn(-c2cc3c(C(C)C)cn(-c4c(C)cccc4F)c(=O)c3cc2F)c1=O [Example 69, 6-(4-Ethyl-3-(hydroxymethyl)-5-oxo-4,5-dihydro-1H-1,2,4-triazol-1-yl)-7-fluoro-2-(2-fluoro-6-methylphenyl)-4-isopropylisoquinolin-1(2H)-one] | 0.7 | 0.435 | – |
| C=C(C)c1cn(-c2cccc(OC)c2Cl)c(=O)c2cc(F)c(-n3nc(CO)n(CC)c3=O)cc12 [Example 70, 2-(2-Chloro-3-methoxyphenyl)-6-(4-ethyl-3-(hydroxymethyl)-5-oxo-4,5-dihydro-1H-1,2,4-triazol-1-yl)-7-fluoro-4-(prop-1-en-2-yl)isoquinolin-1(2H)-one] | 0.4 | 0.24 | – |
| C=C(C)c1cn(-c2c(C)cnc(OC)c2C)c(=O)c2cc(F)c(-n3nc(CO)n(CC)c3=O)cc12 [Example 71, 6-(4-Ethyl-3-(hydroxymethyl)-5-oxo-4,5-dihydro-1H-1,2,4-triazol-1-yl)-7-fluoro-2-(2-methoxy-3,5-dimethylpyridin-4-yl)-4-(prop-1-en-2-yl)isoquinolin-1(2H)-one] | 10 | 2.02 | – |
| C=C(C)c1cn(-c2cc(F)ccc2F)c(=O)c2cc(F)c(-n3nc(CO)n(CC)c3=O)cc12 [Example 72, 2-(2,5-Difluorophenyl)-6-(4-ethyl-3-(hydroxymethyl)-5-oxo-4,5-dihydro-1H-1,2,4-triazol-1-yl)-7-fluoro-4-(prop-1-en-2-yl)isoquinolin-1(2H)-one] | 2 | 0.946 | – |
| C=C(C)c1cn(-c2c(C)cccc2F)c(=O)c2cc(F)c(-n3nc(CO)n(CC)c3=O)cc12 [Example 73, 6-(4-Ethyl-3-(hydroxymethyl)-5-oxo-4,5-dihydro-1H-1,2,4-triazol-1-yl)-7-fluoro-2-(2-fluoro-6-methylphenyl)-4-(prop-1-en-2-yl)isoquinolin-1(2H)-one] | 0.7 | 0.562 | – |
| CCn1c(CO)nn(-c2cc3c(C(C)C)cn(-c4cccc(F)c4C)c(=O)c3cc2F)c1=O [Example 74, 6-(4-Ethyl-3-(hydroxymethyl)-5-oxo-4,5-dihydro-1H-1,2,4-triazol-1-yl)-7-fluoro-2-(3-fluoro-2-methylphenyl)-4-isopropylisoquinolin-1(2H)-one] | 7 | 2.24 | – |
| CCn1c(CO)nn(-c2cc3c(C(C)C)cn(-c4cc(C)ccc4C)c(=O)c3cc2F)c1=O [Example 75, 2-(2,5-Dimethylphenyl)-6-(4-ethyl-3-(hydroxymethyl)-5-oxo-4,5-dihydro-1H-1,2,4-triazol-1-yl)-7-fluoro-4-isopropylisoquinolin-1(2H)-one] | 1 | 0.58 | – |
| C=C(C)c1cn(-c2ccc(F)cc2C)c(=O)c2cc(F)c(-n3nc(CO)n(CC)c3=O)cc12 [Example 76, 6-(4-Ethyl-3-(hydroxymethyl)-5-oxo-4,5-dihydro-1H-1,2,4-triazol-1-yl)-7-fluoro-2-(4-fluoro-2-methylphenyl)-4-(prop-1-en-2-yl)isoquinolin-1(2H)-one] | 4 | 1.5 | – |
| CCn1c(CO)nn(-c2cc3c(C(C)C)cn(-c4ccccc4F)c(=O)c3cc2F)c1=O [Example 77, 6-(4-Ethyl-3-(hydroxymethyl)-5-oxo-4,5-dihydro-1H-1,2,4-triazol-1-yl)-7-fluoro-2-(2-fluorophenyl)-4-isopropylisoquinolin-1(2H)-one] | 3 | 1.86 | – |
| CCn1c(CO)nn(-c2cc3c(C(C)C)cn(-c4c(C)cnc(OC)c4C)c(=O)c3cc2F)c1=O [Example 78, 6-(4-Ethyl-3-(hydroxymethyl)-5-oxo-4,5-dihydro-1H-1,2,4-triazol-1-yl)-7-fluoro-4-isopropyl-2-(2-methoxy-3,5-dimethylpyridin-4-yl)isoquinolin-1(2H)-one] | 20 | 2.34 | – |
| C=C(C)c1cn(-c2ccccc2C)c(=O)c2cc(C)c(-n3nc(CO)n(CC)c3=O)cc12 [Example 79, 6-(4-Ethyl-3-(hydroxymethyl)-5-oxo-4,5-dihydro-1H-1,2,4-triazol-1-yl)-7-methyl-4-(prop-1-en-2-yl)-2-(o-tolyl)isoquinolin-1(2H)-one] | 10 | 17.1 | – |
| CCn1c(CO)nn(-c2cc3c(C(C)C)cn(-c4c(F)ccc(OC)c4Cl)c(=O)c3cc2F)c1=O [Example 80, 2-(2-Chloro-6-fluoro-3-methoxyphenyl)-6-(4-ethyl-3-(hydroxymethyl)-5-oxo-4,5-dihydro-1H-1,2,4-triazol-1-yl)-7-fluoro-4-isopropylisoquinolin-1(2H)-one] | 0.3 | 0.273 | – |
| C=C(c1cn(-c2ccccc2C)c(=O)c2cc(F)c(-n3nc(CO)n(CC)c3=O)cc12)C(F)(F)F [Example 81, 6-(4-Ethyl-3-(hydroxymethyl)-5-oxo-4,5-dihydro-1H-1,2,4-triazol-1-yl)-7-fluoro-2-(o-tolyl)-4-(3,3,3-trifluoroprop-1-en-2-yl)isoquinolin-1(2H)-one] | 0.3 | 0.226 | – |
| C=C(C)c1cn(-c2ccccc2OC)c(=O)c2cc(F)c(-n3nc(CO)n(CC)c3=O)cc12 [Example 83, 6-(4-Ethyl-3-(hydroxymethyl)-5-oxo-4,5-dihydro-1H-1,2,4-triazol-1-yl)-7-fluoro-2-(2-methoxyphenyl)-4-(prop-1-en-2-yl)isoquinolin-1(2H)-one] | ≤ 0.2 | 0.444 | 0.2 |
| C=C(C)c1cn(-c2cc(C)cnc2Cl)c(=O)c2cc(F)c(-n3nc(CO)n(CC)c3=O)cc12 [Example 84, 2-(2-Chloro-5-methylpyridin-3-yl)-6-(4-ethyl-3-(hydroxymethyl)-5-oxo-4,5-dihydro-1H-1,2,4-triazol-1-yl)-7-fluoro-4-(prop-1-en-2-yl)isoquinolin-1(2H)-one] | 70 | 6.58 | – |
| C=C(C)c1cn(-c2cc(OC)ncc2F)c(=O)c2cc(F)c(-n3nc(CO)n(CC)c3=O)cc12 [Example 85, 6-(4-Ethyl-3-(hydroxymethyl)-5-oxo-4,5-dihydro-1H-1,2,4-triazol-1-yl)-7-fluoro-2-(5-fluoro-2-methoxypyridin-4-yl)-4-(prop-1-en-2-yl)isoquinolin-1(2H)-one] | 20 | 6.55 | – |
| C=C(C)c1cn(-c2cccc(F)c2C)c(=O)c2cc(F)c(-n3nc(CO)n(CC)c3=O)cc12 [Example 86, 6-(4-Ethyl-3-(hydroxymethyl)-5-oxo-4,5-dihydro-1H-1,2,4-triazol-1-yl)-7-fluoro-2-(3-fluoro-2-methylphenyl)-4-(prop-1-en-2-yl)isoquinolin-1(2H)-one] | 3 | 1.19 | – |
| C=C(C)c1cn(-c2cc(C)ccc2C)c(=O)c2cc(F)c(-n3nc(CO)n(CC)c3=O)cc12 [Example 87, 2-(2,5-Dimethylphenyl)-6-(4-ethyl-3-(hydroxymethyl)-5-oxo-4,5-dihydro-1H-1,2,4-triazol-1-yl)-7-fluoro-4-(prop-1-en-2-yl)isoquinolin-1(2H)-one] | 0.9 | 0.292 | – |
